Assay results reported in paper PMC4977651, “Molecular features of biguanides required for targeting of mitochondrial respiratory complex I and activation of AMP-kinase” (BMC Biology, 2016).
“And” between values parts separate entries of the source, which are not always exact repeats. Equal entries are not always repeated.

How the values were obtained:
[1] = tested on: bovine mitochondrial membranes (complexes II-III-IV); test: Succinate:O2 oxidoreduction (complexes II-III-IV, complex II assay) by bovine mitochondrial membranes; assay type: biochemical, Bos taurus; details: biguanide concentrations set to the IC50 values for NADH:O2 on bovine membranes; control = 100.00; n = 3
Experimental: Assays were performed at 32 °C in a SpectraMax 96-well plate reader. NADH:decylubiquinone oxidoreduction by complex I at 0.5 μg mL^−1 was measured in 20 mM Tris-HCl (pH 7.2), 0.15 % soy bean asolectin (Avanti Polar Lipids), and 0.15 % 3-((3-cholamidopropyl)dimethylammonium)-1-propanesulfonate (CHAPS, Merck Chemicals Ltd), with 200 μM decylubiquinone and 200 μM NADH, and monitored using ε340–380(NADH) = 4.81 mM^−1 cm^−1 [23]. Catalysis was initiated by addition of NADH and maximal rates determined by linear regression. NADH:O2 oxidoreduction by membranes was measured similarly but using 5 μg mL^−1 membranes in 10 mM Tris-HCl (pH 7.4) and 250 mM sucrose using 200 μM NADH and supplemented with 0.15 mM horse heart cytochrome c (Sigma-Aldrich Ltd.). Succinate:O2 oxidoreduction was measured using 40 μg mL^−1 membranes in 5 mM succinate in 10 mM Tris-HCl (pH 7.4) as described previously. Control experiments included NaCl (to match the ionic strength) or DMSO, as appropriate.

MDBK cells = test: Rotenone-sensitive oxygen consumption rate in intact MDBK cells; assay type: cell-based, Bos taurus; design: key to rotenone sensitive OCR after 40 mins of biguanide exposure / rotenone sensitive OCR after 40 mins of biguanide exposure, average: % of OCR recorded immediately before biguanide addition; details: biguanide at IC50/10; for rotenone sensitive OCR after 6 hours of biguanide exposure, % control, average / rotenone sensitive OCR after 6 hours of biguanide exposure, average: MDBK cells; for rotenone sensitive OCR after 6 hours of biguanide exposure, average: OCR normalized to OCR immediately prior to biguanide addition; for rotenone sensitive OCR after 40 mins of biguanide exposure, % control, average / rotenone sensitive OCR after 40 mins of biguanide exposure, average / rotenone sensitive OCR after 40 mins of biguanide exposure / rotenone sensitive OCR after 40 mins of biguanide exposure, % control: MDBK intact cells; for rotenone sensitive OCR after 40 mins of biguanide exposure, % control, average / rotenone sensitive OCR after 40 mins of biguanide exposure, average: average of replicates; for rotenone sensitive OCR after 40 mins of biguanide exposure / rotenone sensitive OCR after 40 mins of biguanide exposure, % control: individual replicates
Experimental: 143B (CRL-8303 from ATCC), HepG2 (85011430 from The Health Protection Agency), and MDBK (CCL-22 from ATCC) cells were grown on Dulbecco’s modified Eagle’s medium (DMEM) supplemented with 10 % fetal bovine serum (FBS, Thermo Fisher Scientific) at 37 °C in 5 % CO2. All cells were confirmed as negative for mycoplasma.
Oxygen consumption rates (OCRs) were measured using a Seahorse XF96 extracellular flux analyzer at 37 °C. For intact cell measurements, 1.4 × 10^4 143B, HepG2, or MDBK cells were plated (per well) in DMEM containing 10 % FBS into Seahorse Bioscience Inc. XF96 plates and incubated for ~12 h at 37 °C in 5 % CO2. Then, the medium was exchanged for assay buffer containing DMEM, 4.5 g L^−1 glucose, 1 mM pyruvate, 32 mM NaCl, 2 mM GlutaMAX, 15 mg L^−1 phenol red, and 20 mM HEPES (pH 7.4 at 37 °C) and the cells placed in a CO2-free incubator at 37 °C for 30 min. Basal oxygen consumption rates were established before the addition of biguanides at one-tenth of their IC50 (IC50/10), and followed for ~ 6 h before the addition of rotenone (2 μM).
(§1) Rotenone-sensitive OCRs were calculated by subtracting the rotenone-insensitive rates (determined at the end of the experiment). OCRs were normalized by dividing by the OCR recorded immediately prior to the addition of biguanide. For rate of uptake calculations, the OCRs at time points after biguanide addition were divided by the OCRs at the same time points in control experiments. Data from wells with failed port injections were excluded from the analyses. The respiratory control ratio (RCR) values (state III versus state IV respiration) were ~11 and ~6 for permeabilized MDBK and 143B cells, respectively.

permeabilized MDBK cells = test: ADP-stimulated rotenone-sensitive OCR in permeabilized MDBK cells; assay type: cell-based, Bos taurus; design: rotenone sensitive OCR after ADP stimulation, average / rotenone sensitive OCR after ADP stimulation: unit not given here; details: MDBK permeabilised cells; for rotenone sensitive OCR after ADP stimulation, % of control, average / rotenone sensitive OCR after ADP stimulation, average: average of replicates; for rotenone sensitive OCR after ADP stimulation / rotenone sensitive OCR after ADP stimulation, % of control: individual replicates
Experimental: For permeabilized cell experiments, cells were seeded into XF96 plates at 0.9–1.1 × 10^4 per well and incubated for 48 h at 37 °C in 5 % CO2. Then, the growth medium was exchanged for assay buffer containing 3 nM plasma membrane permeabilizer ‘PMP’ (Seahorse Biosciences Inc.), 10 mM glutamate, 10 mM malate, 220 mM mannitol, 70 mM sucrose, 10 mM KH2PO4, 5 mM MgCl2, 1 mM EGTA, 0.2 % fatty acid-free bovine serum albumin (BSA), and 2 mM HEPES (pH 7.4 at 37 °C). […] The biguanides were allowed to accumulate for 30 min, then respiration was […] by the addition of 4 mM ADP. Rotenone was added (2 μM) at the end of the experiment.
as §1

rat liver mitochondria = test: ADP-stimulated rotenone-sensitive OCR in isolated rat liver mitochondria; assay type: biochemical; design: rotenone sensitive OCR after ADP stimulation, individual replicates / rotenone sensitive OCR after ADP stimulation, average: unit not given here; details: for rotenone sensitive OCR after ADP stimulation, % of control, average / rotenone sensitive OCR after ADP stimulation, average: average of replicates; for rotenone sensitive OCR after ADP stimulation, % of control, individual replicates / rotenone sensitive OCR after ADP stimulation, individual replicates: replicate 1-5
Experimental: (§2) Complex I and mitochondrial membranes were prepared from Bos taurus (bovine) heart. Intact mitochondria were isolated from rat liver and mouse heart and liver. Membranes were prepared from mouse heart mitochondria by 5 s bursts of sonication at 4 °C and collected by centrifugation (75,000 × g, 1 h).
(§3) Isolated mitochondria were monitored using a Seahorse XF96 extracellular flux analyzer at 32 °C. Mouse heart mitochondria, and mouse and rat liver mitochondria were plated into XF96 plates at 4 and 16–20 μg per well, respectively, in 220 mM mannitol, 70 mM sucrose, 10 mM KH2PO4, 5 mM MgCl2, 1 mM EGTA, 0.2 % fatty acid-free BSA, and 2 mM HEPES (pH 7.4 at 37 °C) with 10 mM glutamate and 10 mM malate and adhered by centrifugation (2000 × g, 20 min, 4 °C). The medium was supplemented with a further 5 mM glutamate and 5 mM malate and the mitochondria incubated for 15 min. Then two baseline readings were taken before the biguanides were added at IC50/5. Biguanides were allowed to accumulate for 15–20 min before respiration was […] by the addition of 4 mM ADP. Rotenone (2 μM) was added at the end of the experiment. Data from wells with failed port injections were excluded from the analyses. The RCR values (state III versus state IV respiration) were 3.4, 4.8, and 4.6 for mouse heart, rat liver, and mouse liver, respectively.

mouse liver mitochondria = test: ADP-stimulated rotenone-sensitive OCR in isolated mouse liver mitochondria; assay type: biochemical; design: rotenone sensitive OCR after ADP stimulation, individual replicates / rotenone sensitive OCR after ADP stimulation, average: unit not given here; details: for rotenone sensitive OCR after ADP stimulation, % of control, average / rotenone sensitive OCR after ADP stimulation, average: average of replicates; for rotenone sensitive OCR after ADP stimulation, % of control, individual replicates / rotenone sensitive OCR after ADP stimulation, individual replicates: replicate 1-5
Experimental: as §2, §3

[H]/N=C(\N/C(=N/[H])Nc1ccc(Cl)cc1)NC(C)C [proguanil, reference compound]
Complex II assay (succinate:O2 oxidoreduction), average [1]: 95.35 | rotenone sensitive OCR after 6 hours of biguanide exposure, % control, average (MDBK cells): 89.87 % control | rotenone sensitive OCR after 6 hours of biguanide exposure, average (MDBK cells): 90.15 | rotenone sensitive OCR after 40 mins of biguanide exposure, % control, average (MDBK cells): 96.96 % control | rotenone sensitive OCR after 40 mins of biguanide exposure, average (MDBK cells): 98.65 | rotenone sensitive OCR after 40 mins of biguanide exposure (MDBK cells): 102.33 and 100.74 (2×) and 97.32 and 96.18 and 94.63 | rotenone sensitive OCR after 40 mins of biguanide exposure, % control (MDBK cells): 100.56 % control and 99.00 % control and 99.01 % control and 95.64 % control and 94.52 % control and 93.00 % control | rotenone sensitive OCR after ADP stimulation, % of control, average (permeabilized MDBK cells): 105.17 % of control | rotenone sensitive OCR after ADP stimulation, average (permeabilized MDBK cells): 296.39 | rotenone sensitive OCR after ADP stimulation, % of control, average (permeabilized MDBK cells; biguanide at IC50/5): 105.17 % of control | rotenone sensitive OCR after ADP stimulation, average (permeabilized MDBK cells; biguanide at IC50/5): 296.39 | rotenone sensitive OCR after ADP stimulation (permeabilized MDBK cells; biguanide at IC50/5): 272.71 and 215.77 and 253.06 and 330.67 and 409.72 | rotenone sensitive OCR after ADP stimulation, % of control (permeabilized MDBK cells; biguanide at IC50/5): 96.77 % of control and 76.56 % of control and 89.79 % of control and 117.34 % of control and 145.38 % of control | rotenone sensitive OCR after ADP stimulation, % of control, average (rat liver mitochondria): 91.40 % of control | rotenone sensitive OCR after ADP stimulation, average (rat liver mitochondria): 25.06 | rotenone sensitive OCR after ADP stimulation, % of control, individual replicates (rat liver mitochondria): 82.64 % of control and 94.24 % of control and 97.33 % of control | rotenone sensitive OCR after ADP stimulation, individual replicates (rat liver mitochondria): 22.66 and 25.84 and 26.69 | rotenone sensitive OCR after ADP stimulation, % of control, average (mouse liver mitochondria): 89.71 % of control | rotenone sensitive OCR after ADP stimulation, average (mouse liver mitochondria): 31.13 | rotenone sensitive OCR after ADP stimulation, % of control, individual replicates (mouse liver mitochondria): 103.28 % of control and 81.19 % of control and 80.15 % of control and 94.21 % of control | rotenone sensitive OCR after ADP stimulation, individual replicates (mouse liver mitochondria): 35.84 and 28.17 and 27.81 and 32.69

[H]/N=C(/N)N/C(=N/[H])NCCc1ccccc1 [phenformin, reference compound]
Complex II assay (succinate:O2 oxidoreduction), average [1]: 95.51 | rotenone sensitive OCR after 6 hours of biguanide exposure, % control, average (MDBK cells): 42.78 % control | rotenone sensitive OCR after 6 hours of biguanide exposure, average (MDBK cells): 42.91 | rotenone sensitive OCR after 40 mins of biguanide exposure, % control, average (MDBK cells): 95.24 % control | rotenone sensitive OCR after 40 mins of biguanide exposure, average (MDBK cells): 96.91 | rotenone sensitive OCR after 40 mins of biguanide exposure (MDBK cells): 97.35 and 95.76 and 94.48 and 101.29 and 95.15 and 97.44 | rotenone sensitive OCR after 40 mins of biguanide exposure, % control (MDBK cells): 95.67 % control and 94.11 % control and 92.85 % control and 99.55 % control and 93.51 % control and 95.76 % control | rotenone sensitive OCR after ADP stimulation, % of control, average (permeabilized MDBK cells): 14.11 % of control | rotenone sensitive OCR after ADP stimulation, average (permeabilized MDBK cells): 39.76 | rotenone sensitive OCR after ADP stimulation, % of control, average (permeabilized MDBK cells; biguanide at IC50/5): 14.11 % of control | rotenone sensitive OCR after ADP stimulation, average (permeabilized MDBK cells; biguanide at IC50/5): 39.76 | rotenone sensitive OCR after ADP stimulation (permeabilized MDBK cells; biguanide at IC50/5): 45.64 and 68.90 and 0.07 and 37.54 and 39.83 and 25.16 and 62.96 and 38.03 | rotenone sensitive OCR after ADP stimulation, % of control (permeabilized MDBK cells; biguanide at IC50/5): 16.19 % of control and 24.45 % of control and 0.025 % of control and 13.32 % of control and 14.13 % of control and 8.93 % of control and 22.34 % of control and 13.49 % of control | rotenone sensitive OCR after ADP stimulation, % of control, average (rat liver mitochondria): 22.17 % of control | rotenone sensitive OCR after ADP stimulation, average (rat liver mitochondria): 6.08 | rotenone sensitive OCR after ADP stimulation, % of control, individual replicates (rat liver mitochondria): 23.43 % of control and 20.89 % of control and 22.08 % of control and 22.26 % of control | rotenone sensitive OCR after ADP stimulation, individual replicates (rat liver mitochondria): 6.42 and 5.73 and 6.05 and 6.10 | rotenone sensitive OCR after ADP stimulation, % of control, average (mouse liver mitochondria): 29.95 % of control | rotenone sensitive OCR after ADP stimulation, average (mouse liver mitochondria): 10.39 | rotenone sensitive OCR after ADP stimulation, % of control, individual replicates (mouse liver mitochondria): 29.69 % of control and 34.49 % of control and 19.77 % of control and 35.85 % of control | rotenone sensitive OCR after ADP stimulation, individual replicates (mouse liver mitochondria): 10.30 and 11.97 and 6.86 and 12.44
